Where two headings read alike, the source gives them in different places.
What was measured:
Type in all cases: cell-based
[1] = target: T1, TRP channel (TRPM8) (Mus musculus, UniProt Q8R4D5); assay: Ca2+-imaging of stable HEK293T cell line TRPM8; conditions: for IC50: ligand menthol 300 μM, read-out: IC50 TRPM8; for inhibition at 4 µM: HEK-293T, compound applied at 4 μM, read-out: Percent Inhibition TRPM8
T1 construct: Full-length cDNAs for mosquito (Anopheles gambiae) odorant receptor (OR1, OR2, OR7, OR8, OR28), and fly (Drosophila melanogaster) odorant receptor (Or47a, Or83b), mouse TRP channel (TRPM8); expressed in transfected cells
T1 sequence (Q8R4D5 whole entry): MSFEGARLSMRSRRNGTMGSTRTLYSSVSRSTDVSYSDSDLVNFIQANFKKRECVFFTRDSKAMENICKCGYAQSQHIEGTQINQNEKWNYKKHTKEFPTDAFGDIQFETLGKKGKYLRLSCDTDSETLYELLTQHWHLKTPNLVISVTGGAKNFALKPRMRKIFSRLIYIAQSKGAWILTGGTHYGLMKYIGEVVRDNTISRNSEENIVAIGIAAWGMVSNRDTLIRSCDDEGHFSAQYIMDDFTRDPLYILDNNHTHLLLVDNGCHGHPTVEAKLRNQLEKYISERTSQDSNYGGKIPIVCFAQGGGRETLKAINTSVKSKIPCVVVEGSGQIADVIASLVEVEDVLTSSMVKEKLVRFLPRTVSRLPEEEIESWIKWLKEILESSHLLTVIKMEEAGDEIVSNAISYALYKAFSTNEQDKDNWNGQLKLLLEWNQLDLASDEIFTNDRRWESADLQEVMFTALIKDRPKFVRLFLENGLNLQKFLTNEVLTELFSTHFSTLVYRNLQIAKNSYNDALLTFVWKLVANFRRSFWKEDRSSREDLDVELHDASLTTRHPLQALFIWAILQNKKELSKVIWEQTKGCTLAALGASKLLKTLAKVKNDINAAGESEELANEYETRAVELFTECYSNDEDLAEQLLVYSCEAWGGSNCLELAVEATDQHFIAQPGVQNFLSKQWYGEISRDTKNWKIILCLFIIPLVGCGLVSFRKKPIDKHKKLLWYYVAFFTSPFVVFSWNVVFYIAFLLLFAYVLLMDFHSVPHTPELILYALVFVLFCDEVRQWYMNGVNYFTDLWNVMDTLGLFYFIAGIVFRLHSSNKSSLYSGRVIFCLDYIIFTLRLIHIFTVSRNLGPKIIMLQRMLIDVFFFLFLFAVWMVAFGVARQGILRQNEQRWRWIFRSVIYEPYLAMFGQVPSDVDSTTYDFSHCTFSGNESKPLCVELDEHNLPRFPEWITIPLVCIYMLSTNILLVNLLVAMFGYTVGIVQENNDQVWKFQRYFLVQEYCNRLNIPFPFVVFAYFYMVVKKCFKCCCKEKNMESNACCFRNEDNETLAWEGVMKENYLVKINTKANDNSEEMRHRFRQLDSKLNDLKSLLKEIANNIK
Description: (§1) Full-length cDNAs for mosquito (Anopheles gambiae) odorant receptor (OR1, OR2, OR7, OR8, OR28), and fly (Drosophila melanogaster) odorant receptor (Or47a, Or83b), mouse TRP channel (TRPM8), and mouse serotonin receptor (5HT3) were obtained and subcloned into mammalian expression vectors. The following mammalian expression vectors were used:
(§2) Stable cell lines OR1/OR7, OR2/OR7, OR8/OR7, OR10/OR7, OR28/OR7 and TRPM8 were generated from HEK293T cells. HEK293T-based cell lines were cultured in DMEM supplemented with these additional antibiotics: 6 μg/mL blasticidin and 1 μg/mL puromycin, with the exception of the TRPM8 cell lines, which was cultured in DMEM supplemented with 1 μg/mL puromycin.
(§3) Cells were trypsinized and split into 35 mm dishes one day before transfection. Confluent cells (60-70%) in 35 mm dishes were transfected with 1 μg of insect OR(X) plasmids in pME18s-bla and 1 μg of OR7-pME18s-puro using lipofectamine 2000. For Anopheles odorant receptors, two plasmids were co-transfected into HEK cells: the ligand-specific receptor (OR1, OR2, OR8, OR28) and the corresponding olfactory co-receptor: OR7. Cell lines containing TRPM8 were transfected with single plasmid.
(§4) Stable cell lines were cultured in 10 cm dishes, and confluent cells (70-80%) were trypsinized. 10,000 cells/20 μL were transferred into each well of 384-well plates coated with poly-D-lysine, and cultured for 2 days. For Flip-In T-Rex cells (cell lines expressing Or47a/Or83b and 5HT3), 5 μL of tetracycline (5 μg/mL) were added 1 day before the assay. 20 μL of Ca-4 dye was loaded into each well for 1.5 hr at room temperature in the dark, and the dye-loaded plates were subjected to Ca^2+-imaging using a Hamamatsu FDSS6000 real time fluorescence plate reader. Odorant solutions (9× final concentration) were prepared by dissolving 1M stock solutions into Hank's Buffered Salt Solution (HBSS), and 30 μL of odor solution was transferred to each well in 384-well plates.
(§5) Compounds ([…] in DMSO) were stored in 384-well plates, and last two columns (32 wells total) contained only DMSO. 200 nL of small compounds were transferred into the odorant plates before the assay using the Perkin-Elmer Janus workstation. The odorant plates were spun down to remove air bubbles, and placed on the FDSS6000 plate loader, and 5 μL of odorant solution was applied to the cell plate on the FDSS6000. Ca^2+ increase was monitored with fluorescence at 525 nm by excitation at 485 nm.

[2] = target: OR10/OR7 (Anopheles gambiae, UniProt B5U0U7+Q7QCC7); assay: Ca2+-imaging of stable HEK293T cell line OR10/OR7; conditions: for inhibition at 4 µM: HEK-293T, compound applied at 4 μM, read-out: Percent Inhibition OR10 OR7
OR10/OR7, sequence (Q7QCC7 whole entry): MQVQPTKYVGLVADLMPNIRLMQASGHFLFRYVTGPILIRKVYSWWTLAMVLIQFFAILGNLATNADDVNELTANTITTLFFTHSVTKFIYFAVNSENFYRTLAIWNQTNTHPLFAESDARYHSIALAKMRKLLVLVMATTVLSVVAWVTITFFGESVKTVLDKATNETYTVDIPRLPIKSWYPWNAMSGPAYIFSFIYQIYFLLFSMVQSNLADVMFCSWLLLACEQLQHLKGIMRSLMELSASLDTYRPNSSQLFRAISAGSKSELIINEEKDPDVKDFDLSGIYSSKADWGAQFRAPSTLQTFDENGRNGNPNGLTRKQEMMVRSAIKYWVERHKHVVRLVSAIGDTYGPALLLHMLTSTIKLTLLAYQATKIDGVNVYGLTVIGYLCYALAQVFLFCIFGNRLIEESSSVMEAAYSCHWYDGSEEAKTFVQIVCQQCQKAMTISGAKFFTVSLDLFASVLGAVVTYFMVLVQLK
OR10/OR7, sequence (B5U0U7 entry or part of it): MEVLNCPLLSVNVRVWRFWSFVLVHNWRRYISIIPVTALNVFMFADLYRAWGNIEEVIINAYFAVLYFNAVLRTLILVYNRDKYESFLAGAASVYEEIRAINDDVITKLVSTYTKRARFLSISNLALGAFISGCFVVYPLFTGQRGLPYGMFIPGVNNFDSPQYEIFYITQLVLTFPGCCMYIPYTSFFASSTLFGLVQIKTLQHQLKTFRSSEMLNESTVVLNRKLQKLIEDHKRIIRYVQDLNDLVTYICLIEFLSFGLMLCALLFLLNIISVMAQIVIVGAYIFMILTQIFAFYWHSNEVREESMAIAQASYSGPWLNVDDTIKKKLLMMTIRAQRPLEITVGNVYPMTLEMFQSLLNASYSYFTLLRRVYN
Description: as §2
After one day of incubation, the transfected cells were transferred into 10 cm dishes with DMEM containing antibiotics as follows: • 0.5 μg/mL of blasticidin for OR1/OR7, OR2/OR7, OR8/OR7, OR10/OR7, OR28/OR7 • 0.2 μg/mL of puromycin for TRPM8.
as §4, §5

[3] = target: OR8/OR7 (Anopheles gambiae, UniProt Q7PUT5+Q7QCC7); assay: Ca2+-imaging of stable HEK293T cell line OR8/OR7; conditions: for inhibition at 4 µM: HEK-293T, compound applied at 4 μM, read-out: Percent Inhibition OR8 OR7
OR8/OR7, sequence (Q7QCC7 whole entry): as the sequence (Q7QCC7 whole entry) above
OR8/OR7, sequence (Q7PUT5 entry or part of it): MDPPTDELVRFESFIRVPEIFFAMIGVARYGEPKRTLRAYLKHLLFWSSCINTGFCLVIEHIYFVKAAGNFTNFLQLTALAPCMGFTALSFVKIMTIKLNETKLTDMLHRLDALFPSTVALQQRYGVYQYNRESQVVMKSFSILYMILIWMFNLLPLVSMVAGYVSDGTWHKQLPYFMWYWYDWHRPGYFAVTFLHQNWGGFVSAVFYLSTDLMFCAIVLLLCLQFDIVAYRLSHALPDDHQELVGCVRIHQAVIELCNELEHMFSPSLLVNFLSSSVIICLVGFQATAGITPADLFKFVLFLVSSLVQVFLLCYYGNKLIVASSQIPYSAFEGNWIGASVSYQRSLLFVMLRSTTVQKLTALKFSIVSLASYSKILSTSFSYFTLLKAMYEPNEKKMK
Description: as §1, §2, §3, §4, §5

[4] = target: OR28/OR7 (Anopheles gambiae, UniProt A0A1S4GFY3+Q7QCC7); assay: Ca2+-imaging of stable HEK293T cell line OR28/OR7; conditions: for inhibition at 4 µM: HEK-293T, compound applied at 4 μM, read-out: Percent Inhibition OR28 OR7
OR28/OR7, sequence (A0A1S4GFY3 entry or part of it): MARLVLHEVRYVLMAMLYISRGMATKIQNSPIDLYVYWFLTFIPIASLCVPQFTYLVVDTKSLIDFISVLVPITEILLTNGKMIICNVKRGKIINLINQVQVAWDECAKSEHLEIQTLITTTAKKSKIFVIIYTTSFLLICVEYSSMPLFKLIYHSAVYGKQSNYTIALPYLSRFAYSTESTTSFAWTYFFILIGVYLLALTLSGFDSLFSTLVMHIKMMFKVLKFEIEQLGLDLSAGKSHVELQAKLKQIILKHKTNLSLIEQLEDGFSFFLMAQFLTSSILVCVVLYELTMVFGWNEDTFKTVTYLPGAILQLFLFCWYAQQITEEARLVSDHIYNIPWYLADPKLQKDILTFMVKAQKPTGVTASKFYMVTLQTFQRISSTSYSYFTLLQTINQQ
OR28/OR7, sequence (Q7QCC7 whole entry): as the sequence (Q7QCC7 whole entry) above
Description: as §1, §2, §3, §4, §5

[5] = target: T2, mOREG (Mus musculus, UniProt Q920P2); assay: Ca2+-imaging, control receptor mOREG; conditions: for inhibition at 4 µM: compound applied at 4 μM, read-out: Percent Inhibition mOREG; for IC50: Table B
T2 sequence (Q920P2 1-313): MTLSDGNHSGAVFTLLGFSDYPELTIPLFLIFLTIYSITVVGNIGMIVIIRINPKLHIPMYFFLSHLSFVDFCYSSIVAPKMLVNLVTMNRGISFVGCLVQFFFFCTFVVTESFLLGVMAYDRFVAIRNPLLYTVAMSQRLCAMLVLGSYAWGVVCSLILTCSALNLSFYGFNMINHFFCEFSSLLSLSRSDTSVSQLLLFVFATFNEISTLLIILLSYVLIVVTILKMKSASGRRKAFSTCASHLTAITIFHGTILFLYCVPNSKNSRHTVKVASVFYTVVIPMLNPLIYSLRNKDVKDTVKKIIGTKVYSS
Description: as §4, with “plates. The last two columns of the plate (32 wells total) were used as control wells as follows: • negative control with HBSS buffer (16 wells) • positive control with ligands (16 wells).” for “plates.”
as §5

| Compound | IC50 [1] [µM] | IC50 [2] [µM] | IC50 [3] [µM] | IC50 [4] [µM] | inhibition at 4 µM [1] [%] | inhibition at 4 µM [5] [%] | inhibition at 4 µM [2] [%] | IC50 ([2]; Table B, read-out: IC50 OR10) [µM] | inhibition at 4 µM [3] [%] | inhibition at 4 µM [4] [%] | IC50 ([4]; Table B, read-out: IC50 OR28) [µM] | IC50 ([2]; ligand indole 30 μM, read-out: IC50 OR10 OR7) [µM] | IC50 ([3]; ligand 1-octen-3-ol 30 μM, read-out: IC50 OR8 OR7) [µM] | IC50 ([4]; ligand acetophenone 300 μM, read-out: IC50 OR28 OR7) [µM] | IC50 [5] [µM] | IC50 ([3]; Table B, read-out: IC50 OR8) [µM] |
| --- | --- | --- | --- | --- | --- | --- | --- | --- | --- | --- | --- | --- | --- | --- | --- | --- |
| CCNc1nc(NC(C)C)nc(SC)n1 [RU-T3] | > 20 | 2 to 20 | 2 to 20 | 2 to 20 | – | – | – | – | – | – | – | – | – | – | – | – |
| CC(C)N(Cc1nccn1Cc1c(F)cccc1Cl)C(=O)c1ccc(Cl)cc1 [RU-0055364] | – | – | – | – | < 25 | 26 to 50 | > 75 | 0.1 to 1 | 26 to 50 | > 75 | < 0.1 | – | – | – | – | – |
| C=CCN(Cc1nccn1Cc1cccc(F)c1)C(=O)c1ccccc1F [RU-I1] | > 20 | – | – | – | – | – | – | – | – | – | – | 2 to 20 | 20 to 50 | 20 to 50 | – | – |
| CCn1c(C)c(C(=O)CN(CC2CCCO2)C(=O)C2C[C@H]2c2ccccc2)c(C)c1C(=O)OC (stereo partly shown) [RU-0071273] | – | – | – | – | < 25 | 26 to 50 | 51 to 74 | < 0.1 | 26 to 50 | > 75 | < 0.1 | – | – | – | 0.1 to 1 | – |
| CCOC(=O)C1CCCN(C(=O)c2csc(CSc3nnc(-c4cccc(OC)c4)n3-c3ccc(C)cc3)n2)C1 (stereo not shown) [RU-0071628] | – | – | – | – | < 25 | 26 to 50 | < 25 | – | 26 to 50 | > 75 | < 0.1 | – | – | – | – | – |
| COc1ccccc1C(=O)C1CCCN(C(=O)c2cccc(N3CCOCC3)c2)C1 (stereo not shown) [RU-0029350] | – | – | – | – | 26 to 50 | 26 to 50 | 51 to 74 | > 1 | 26 to 50 | > 75 | 0.1 to 1 | – | – | – | – | > 1 |
| Cc1cccc(Cn2ccnc2CN(C(=O)c2ccccc2F)C2CCCCC2)c1 [RU-0047851] | – | – | – | – | < 25 | 26 to 50 | > 75 | < 0.1 | < 25 | 26 to 50 | < 0.1 | – | – | – | – | – |
| COc1cccc(-c2nnc(SCCCC(=O)N3CCN(C(=O)CC(C)(C)C)C(C)C3)n2-c2ccc(C)cc2)c1 (stereo not shown) [RU-0071818] | – | – | – | – | < 25 | 51 to 74 | 51 to 74 | > 1 | < 25 | > 75 | < 0.1 | – | – | – | > 1 | – |
| COCCCN(Cc1c(-c2ccccc2)noc1N1CCCC1)C(=O)c1ccc(F)cc1 [RU-0037386] | – | – | – | – | < 25 | 26 to 50 | 26 to 50 | – | 51 to 74 | > 75 | < 0.1 | – | – | – | – | > 1 |
| COc1ccccc1CCC(=O)N1CCC(CCC(=O)Nc2ccccc2)CC1 [RU-0032455] | – | – | – | – | < 25 | 26 to 50 | < 25 | – | 26 to 50 | > 75 | < 0.1 | – | – | – | – | – |
| O=C(Cc1cccc(F)c1)N1CCOC(COCc2c(Cl)cccc2Cl)C1 (stereo not shown) [RU-0050398] | – | – | – | – | < 25 | < 25 | < 25 | – | < 25 | > 75 | 0.1 to 1 | – | – | – | – | – |
| Cc1ccccc1C(=O)N[C@@H]1CCCCC1NC(=O)C1CCN(C(=O)c2ccc(C(C)(C)C)cc2)CC1 (stereo partly shown) [RU-0045678] | – | – | – | – | < 25 | 26 to 50 | > 75 | > 1 | 26 to 50 | > 75 | < 0.1 | – | – | – | – | – |
| O=C(c1cccc(F)c1)N(Cc1c(-c2ccccc2)noc1N1CCCC1)CC1CCCO1 (stereo not shown) [RU-0037434] | – | – | – | – | < 25 | 26 to 50 | 26 to 50 | – | 51 to 74 | > 75 | < 0.1 | – | – | – | – | > 1 |

Source: patent US20130324522A1, “INSECT ODORANT RECEPTOR ANTAGONISTS” (THE ROCKEFELLER UNIVERSITY, priority 2010, published 2013)
